Measurements from US20090012148A1, “REDUCING CELLULAR CHOLESTEROL LEVELS AND/OR TREATING OR PREVENTING PHOSPHOLIPIDOSIS” (priority 2005, published 2009).
Entries after “also recorded” stand apart in the source; their conditions may differ.

How the values were obtained:
CT60 cells [1] = assay: Filipin binding assay, average filipin intensity and staining pattern; type: cell-based, Chinese hamster; settings: 10 μM; for Average filipin intensity Fraction of control: 14 hit compounds from primary library
Protocol: We developed assays for correction of the NPC phenotype in CHO cell lines using filipin, which binds to non-esterified cholesterol and has been used to visualize the free cholesterol content in NPC cells. The initial screens were carried out in CT60 cells, which express a mutated hamster NPC1 protein and a gain of function mutation in SCAP (42). These cells cannot traffic LDL-derived cholesterol out of late endosomes, and large amounts of cholesterol accumulate in LSO compartments. FIGS. 1A-B show images of filipin staining in a control CHO cell line, TRVb1 (45) (FIG. 1A) and in CT60 cells (FIG. 1B). It can be seen that the CT60 cells show much more filipin staining than control cells and that the fluorescence in CT60 cells is concentrated in peri-nuclear organelles.
For screening, images were acquired using a Discovery-1 automated microscopy system with a 10× objective and corrected for background and shading as described in Methods. Two thresholds were set for filipin staining, a low threshold to include all cell areas, and a high threshold for the strong filipin staining in the peri-nuclear LSOs. The threshold values were set for each plate from analysis of 64 images in 32 wells of untreated CT60 cells. […] In developing the low threshold, we compared the outlines based on the thresholded cell images with transmitted light images, and the thresholds provided good agreement with the transmitted light cell boundaries.
As a simple measure of the intensity of filipin staining, we measured the filipin intensity per pixel above the threshold. The conditions of filipin labeling (time and concentration) were adjusted to optimize the discrimination between the CT60 cells and control TRVb1 cells. […] The quality of the assay for screening is expressed in terms of a statistical parameter Z′(46):
Using the above screening technique, we screened a library of 14,956 compounds added to cells for 16 hours at a final concentration of 10 μM, using a single well for each compound. Prior to application of the compounds, cells were grown in normal tissue culture medium containing 10% FBS, so the LSOs were filled with cholesterol (FIG. 1B). The cells were then imaged and analyzed using the average filipin intensity assay and the LSO compartment assay. In general, the two analyses identified similar compounds that reduced the filipin labeling.
Compound addition: The library compounds were formatted for screening in the Rockefeller University High Throughput Screening Facility. Cells were treated with the compounds from the chemical library one day after plating. We added […] of each compound (5 mM stock in DMSO) to 25 μl of screening Medium S composed of medium A supplemented with 1% FBS and 20 mM 4-(2-hydroxyethyl)-1-pipiperazine ethane sulphonic acid (HEPES) in Falcon 384-well V-bottomed polypropylene plates using a Packard MiniTrak™ robotic liquid handling system. To obtain ˜10 μM final concentration, 23 μl of the premixed compounds were dispensed into the plates containing cells and […] of culture medium A. For primary screening, 352 test compounds were added to each plate, and the remaining 32 wells were used as a control with only DMSO added. All plates were incubated with compounds for 16 h at 37° C. Plates were then washed three times with phosphate buffered saline pH 7.4 (PBS) using a Bio-Tek Elx405 plate washer (Bio-Tek Instruments Inc., Winooski, Vt.). For each wash cycle, […] of PBS was dispensed followed by aspiration with a residual volume of 16 μl per well. Finally, cells were fixed with 1.5% PFA in PBS for 20 min at room temperature, followed by 3 more washes with PBS.
Fluorescence labeling. To the fixed cells, filipin was added at a final concentration of 50 μg/ml in PBS for 45 m at room temperature to label free cholesterol. Cells were finally washed three times with PBS, and images were acquired immediately after labeling. […]

CT60 cells [2] = assay: Gas chromatography cholesterol assay; type: cell-based, Chinese hamster; settings: 10 μM, FC = free cholesterol
Protocol: The cholesterol lowering effect of the 14 hit compounds identified by filipin labeling was measured by an alternative chemical method that involved GC separation of solvent-extracted cellular lipids (43). CT60 cells were treated with compounds at 10 μM under the same conditions as in the screening assays. Since the GC assay estimates FC content per cell, the values are compared to the average filipin intensity assay (Table 1).
CT60 or CT43 cells were plated on day 1 in 6-well plates. Hit compounds were added to the cells at 10 μM concentration. Cells were incubated for 24 h. Cellular lipids were extracted with hexane: iso-propyl alcohol (3:2 v/v). The lipid extracts were dried and re-suspended in hexane followed by separation on gas chromatograph using β-sitosterol as an internal standard.
Procedure: CT60 cells were plated in 6-well plates in Ham's F-12/1.176 g/L sodium bicarbonate/2 g/L glucose/10% FBS. Following 24 h incubation, cells were treated with 10 μM of each compounds, medium being replaced with Ham's F-12/1.176 g/L sodium bicarbonate/2 g/L glucose/5.5% FBS/20 mM HEPES. The change of the medium in the wells was performed to have experimental conditions similar to those used for the screening once chemical compounds were added to the cells. After 18 h treatment with compounds, cells were washed twice with Hank's balanced salt solutions (HBSS). Cellular lipids were extracted with hexane/isopropyl alcohol (3:2 v/v) (43) dried and resuspended in hexane followed by separation on a gas chromatograph (GC) using following conditions. A Hewlett Packard GC model HP 5890 series II (Palo Alto, Calif.) equipped with a flame ionization detector, split-splitless injector, and 15 m×0.53 mm HP-5 capillary column coated with […] film thickness of 5% phenyl methyl siloxane was used to separate free cholesterol. The injection temperature was maintained at 255° C. and oven temperature was held isothermally at 260° C. using helium as a mobile phase at 30 mL/min flow rate. The free cholesterol (FC) was quantified using beta-sitosterol as internal standard to correct for lipid losses during extraction.

normal human fibroblasts [3] = assay: Filipin staining of normal human fibroblasts; type: cell-based; settings: data not shown
Protocol: These cells show rearrangements that may indicate that cholesterol has been redirected to a different compartment or that the morphology of the LSOs themselves has been changed (compound 1-c-3, FIG. 4C).
(§1) Normal human fibroblasts (GM5659E) were grown in MEM with 1% P/S and 10% FBS. For microscopy, fibroblasts were plated in normal growth medium on glass-bottomed 35 mm dishes or in 384-well plates.

normal human fibroblasts [4] = assay: Filipin LSO ratio assay on U18666A-treated normal human fibroblasts; type: cell-based; settings: 250 nM or 500 nM, 20 hours
Protocol: FIG. 12 depicts the effect of 7 compounds (2-a-1, 2-a-3, 2-a-8, 2-a-9, 2-a-12, 2-a-13, 2-a-15) from the second library on U18666A-treated normal human fibroblasts. Normal human fibroblasts were plated in 384 well plates and grown in regular growth medium for 24 h, after which the cells were treated with compound U18666A (500 nM or 250 nM) in screening medium for 4 h. The cells were then further incubated overnight with hit compounds (10 μM) in the continued presence of U18666A. Finally, cells were washed three times with PBS, fixed with 1.5% PFA, washed with PBS and stained with filipin. Images were acquired using the Discovery1 microscope at 10× magnification and analyzed for the LSO ratio. Solid horizontal lines are the mean for U18666A-treated cells at each concentration, and the dotted horizontal lines indicate −3 SD.
as §1
Normalized values were obtained by dividing the values in the presence of each compound by the values obtained in presence of solvent control for each plate. Similar methods were used to analyze the effects of compounds on human fibroblasts treated with U18666A to induce cholesterol retention in LSOs. […]

Compound	Average filipin intensity Fraction of control (CT60 cells [1])	μg FC/μg Protein by GC Fraction of control (CT60 cells [2])	further results
Nc1c(Sc2ccccc2)cc(Sc2ccccc2)c2c1C(=O)c1ccccc1C2=O [Compound 1-a-1]	0.87 ± 0.04 Fraction of control	1.02 ± 0.03 Fraction of control	–
C=CCN1C(=O)C(=CC=Cc2ccc(N(C)C)cc2)SC1=S [Compound 1-a-2]	0.88 ± 0.04 Fraction of control	1.15 ± 0.05 Fraction of control	–
CCOc1ccc(NN=C2C(=O)N(c3nc(-c4ccccc4)cs3)N=C2c2ccccc2)cc1 [Compound 1-a-3]	0.95 ± 0.04 Fraction of control	1.27 ± 0.07 Fraction of control	–
COc1ccccc1NN=C1C(=O)N(c2nc(-c3ccc(Cl)cc3)cs2)N=C1C [Compound 1-a-4]	1.01 ± 0.04 Fraction of control	0.87 ± 0.07 Fraction of control	–
O=C1C(=Cc2ccc(-c3ccc(Cl)c(Cl)c3)o2)C=C(c2ccccc2)N1c1ccc(O)cc1 [Compound 1-a-5]	0.89 ± 0.04 Fraction of control	1.18 ± 0.06 Fraction of control	–
O=C1C(=Cc2ccc(-c3ccc(Cl)c(Cl)c3)o2)C=C(c2ccccc2)N1c1ccccc1O [Compound 1-a-6]	0.92 ± 0.04 Fraction of control	1.37 ± 0.01 Fraction of control	–
O=C1C(=Cc2ccc(-c3cc(Cl)ccc3Cl)o2)C=C(c2ccccc2)N1c1ccc(O)cc1 [Compound 1-a-7]	0.89 ± 0.04 Fraction of control	1.04 ± 0.13 Fraction of control	–
O=C1C(=Cc2ccc(-c3ccc(Br)cc3)o2)C=C(c2ccccc2)N1c1ccc(O)cc1 [Compound 1-a-8]	0.90 ± 0.04 Fraction of control	1.31 ± 0.10 Fraction of control	–
O=C1Nc2ccccc2C1=NNc1nc(N2CCCCC2)nc(N2CCCCC2)n1 [Compound 1-a-9]	0.99 ± 0.04 Fraction of control	0.86 ± 0.07 Fraction of control	–
Cc1cc([N+](=O)[O-])ccc1NC(=O)CC1SC(=Nc2ccccc2)N(c2ccccc2)C1=O (stereo not shown) [Compound 1-a-10]	0.96 ± 0.04 Fraction of control	1.23 ± 0.08 Fraction of control	–
CCOC(=O)c1sc(NC(=O)c2ccccc2C)nc1-c1ccccc1 [Compound 1-a-11]	0.90 ± 0.04 Fraction of control	0.82 ± 0.07 Fraction of control	–
CN(C)c1cc(NN=Cc2cccs2)nc(N(C)C)n1 [Compound 1-a-12]	0.91 ± 0.04 Fraction of control	0.73 ± 0.03 Fraction of control	–
O=C(O)c1ccc(N2C(=O)C(=Cc3ccc(-c4ccc(Br)cc4)o3)C=C2c2ccccc2)cc1 [Compound 1-a-13]	0.97 ± 0.04 Fraction of control	1.54 ± 0.11 Fraction of control	–
Clc1ccccc1N1N=C(C=Cc2cccs2)CC1c1cccs1 (stereo not shown) [Compound 1-b-2]	–	–	change in filipin intensity (CT60 cells [1]): increase in filipin intensity; also recorded: increased filipin intensity
CC(C)(C)c1ccc(C(=O)Nc2ccc(-c3nc4ccccc4o3)c(O)c2)cc1 [Compound 1-b-4]	–	–	change in filipin intensity (CT60 cells [1]): significant increase; also recorded: increased filipin-intensity; also recorded: increased filipin intensity; morphological change of the filipin staining pattern (CT60 cells [1]): filamentous or tubular staining; also recorded: induced morphological changes; also recorded: bright swirls of filipin staining; effect on filipin staining compared with CT60 cells (normal human fibroblasts [3]): similar
CCN(CC)C(=O)CCN1C(=O)C(=Cc2ccc(F)cc2)SC1=S [Compound 1-c-2]	–	–	change in filipin intensity (CT60 cells [1]): no significant change; morphological change of the filipin staining pattern (CT60 cells [1]): more compact LSOs; also recorded: morphological changes
CC1=NN(c2ccccc2)C(=O)C1=NNc1ccccc1C(=O)O [Compound 1-c-3]	–	–	morphological change of the filipin staining pattern (CT60 cells [1]): peri-nuclear clusters of LSOs in mutant cells to become more dispersed; also recorded: morphological changes; also recorded: large network of apparently tubular organelles
CCN(CC)CCO[C@H]1CC[C@@]2(C)C(=CC[C@@H]3[C@@H]2CC[C@]2(C)C(=O)CC[C@@H]32)C1 [Compound U18666A]	–	–	cholesterol accumulation by filipin staining and LSO compartment ratio (normal human fibroblasts [4]): significant increase
